Usually log P stands for a log measure of how a compound divides between an organic and an aqueous phase.

Like-named read-outs stand apart in the source and are kept apart here.

The conditions of data set [1]: cited from earlier work.
Data set [2] is described as follows: Calculation of required transdermal flux rates for the once daily treatment of erectile dysfunction (ED). To be noted: human.
The conditions of data set [3]: cited from earlier work. This is another data set of the same source.
Data set [4] is described as follows: in vitro-permeation test through Heat Separated Human Epidermis (HSHE), Hanson Vertical Diffusion Cells. Conditions: Formulation 3. In kind it is in vitro ADME. Here is the method:
In a 10 mL flask with a stopper, 100 mg of vardenafil (base; from LGM Pharma) and 400 mg of isopropylmyristate were mixed with 9.5 g of 2-propanol/water (70% v/v) and shaken for 10 minutes at ambient temperature to obtain the formulation below. The resulting crystal free formulation was subjected to an in vitro-permeation test through Heat Separated Human Epidermis (HSHE), which is highly predictive for in vivo-transdermal flux rates.
Permeation experiments were conducted in duplicate (using 2 cells) following a Standard Operating Procedure for using Hanson Vertical Diffusion Cells (7 mL) mounted with Heat Separated Human Epidermis, an in vitro-experiment with high predictability for transdermal in vivo-fluxes. […]
200 mg of the formulation were applied on each Heat Separated Human Epidermis. […] Samples were withdrawn at predetermined time intervals (see Tables 1 and 2 below) and subjected to HPLC quantification of vardenafil (V).
Permeation experiments were conducted following a Standard Operating Procedure for using Hanson Vertical Diffusion Cells (7 mL) mounted with Heat Separated Human Epidermis, an in vitro-experiment with high predictability for transdermal in vivo-fluxes. […] Samples were withdrawn at predetermined time intervals (see Table 3 below) and subjected to HPLC quantification of vardenafil (V). […]

Consider `CN1CC(=O)N2[C@H](c3ccc4c(c3)OCO4)c3[nH]c4ccccc4c3C[C@@H]2C1=O` [tadalafil], for which the lipophilicity (log P) in data set [1] (Table 12) was 1.7.

As to `C[C@]12CC[C@H]3[C@@H](CCC4=CC(=O)CC[C@@]43C)[C@@H]1CC[C@@H]2O` [testosterone], the “log P” value in data set [1] was 3.4.

On to `CCCc1nc(C)c2c(=O)[nH]c(-c3cc(S(=O)(=O)N4CCN(CC)CC4)ccc3OCC)nn12` [vardenafil], for which the “log P” value in data set [1] (Table 12) and in data set [1] was 1.4 each time. In data set [2], the “systemically available required dose for once daily treatment of ED (calculated)” value is 0.75 mg. Besides, the “calculated transdermal flux rates required to deliver systemic doses for treatment of ED upon application on 200 cm^2” value in data set [2] (24 h) was 3.8 μg/cm^2 μg/cm^2 over 24 h. The plasma half-life entry in data set [3] (after oral administration) was “approximately 3 h”. In addition, the “median time to reach maximum concentration in plasma” value in data set [3] (oral administration, fasted state (Staxyn prescribing information)) is 1.5 h. The absolute bioavailability result in data set [3] (upon oral dosing in man) is reported as “approximately 15%”. Further, in data set [4], the “transdermal flux rate achieved (formulation)” value turned out to be 27 μg/cm^2 μg/cm^2 over 24 h.

For the compound `CCCc1nn(C)c2c(=O)[nH]c(-c3cc(S(=O)(=O)N4CCN(C)CC4)ccc3OCC)nc12` [sildenafil], in data set [1] (Table 12), the “log P” value is 1.9.

Values taken from US20170014417A1, “PHARMACEUTICAL ADMINISTRATION SYSTEM FOR THE TRANSDERMAL APPLICATION OF VARDENAFIL” (LIPP LIFE SCIENCES LLC, priority 2015, published 2017).
